# Results reported in patent US20260028354A1, “TETRAHYDRONAPHTHALENE DERIVATIVES AS ESTROGEN RECEPTOR DEGRADERS” (REGENT OF THE UNIVERSITY OF MICHIGAN, priority 2022, published 2026).
# Biological target: ER (Homo sapiens (Human), UniProt P03372)
# Assay: In-cell western blot analysis of ER for "B" compounds
# Assay type: cell-based
# Conditions: 16 hours, read-out: ICW DC50
# Description: R^T 2h, gentle shaking. Negative control: cells plus secondary antibodies (no primary antibodies); e, wash x 4 with PBS+0.05-0.1% Tween 20, gentel shaking; f, anti-rabbit-680 and anti-mouse-800 (both 1:1000 in LiCor block+0.05% Tween20, R^T 1h, gentle shaking, no light. LI-COR: 0.2% to reduce background; g, wash×4 with PBS+0.05% Tween 20, gental shaking; h, add 100 μL or 25 μL of PBS to each well and read on CLX plate reader. The relative ER percentage in treated cells were obtained by comparing the values of treated wells to those in untreated and DMSO-treated wells as 100%.
# Sequence of ER (P03372 whole entry): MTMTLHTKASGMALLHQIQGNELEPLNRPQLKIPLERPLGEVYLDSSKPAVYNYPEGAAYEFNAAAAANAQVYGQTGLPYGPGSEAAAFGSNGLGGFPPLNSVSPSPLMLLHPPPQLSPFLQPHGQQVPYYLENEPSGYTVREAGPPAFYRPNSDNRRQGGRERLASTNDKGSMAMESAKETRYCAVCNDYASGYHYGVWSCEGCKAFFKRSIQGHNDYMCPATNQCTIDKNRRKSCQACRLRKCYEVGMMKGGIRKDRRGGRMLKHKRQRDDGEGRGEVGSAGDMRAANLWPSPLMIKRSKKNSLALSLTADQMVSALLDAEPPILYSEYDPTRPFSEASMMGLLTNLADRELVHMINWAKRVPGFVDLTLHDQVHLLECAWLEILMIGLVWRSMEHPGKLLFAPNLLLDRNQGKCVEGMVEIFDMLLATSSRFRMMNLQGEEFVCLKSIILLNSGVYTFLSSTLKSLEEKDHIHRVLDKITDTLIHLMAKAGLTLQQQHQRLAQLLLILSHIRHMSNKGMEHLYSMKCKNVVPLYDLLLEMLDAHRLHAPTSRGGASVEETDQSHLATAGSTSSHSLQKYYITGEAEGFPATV
row,SMILES,DC50
1,"CN(CC1CC2(CCN(c3ccc([C@@H]4c5ccc(O)cc5CC[C@@H]4c4ccccc4)cc3)CC2)C1)[C@H]1C[C@H]2COc3cc4c(cc3N2C1)C(=O)N(C1CCC(=O)NC1=O)C4=O (stereo partly drawn) [Compound B331, (2S,3aS)-8-(2,6-dioxopiperidin-3-yl)-2-(((7-(4-((1R,2S)-6-hydroxy-2-phenyl-1,2,3,4-tetrahydronaphthalen-1-yl)phenyl)-7-azaspiro[3.5]nonan-2-yl)methyl)(methyl)amino)-2,3,3a,4-tetrahydro-1H,7H-pyrrolo[1′,2′:4,5][1,4]oxazino[2,3-f]isoindole-7,9(8H)-dione]",> 100 nM
2,"O=C1CC[C@H](N2Cc3c(ccc4c3OC[C@H]3CN(CC5CCC6(CN(c7ccc([C@@H]8c9ccc(O)cc9CC[C@@H]8c8ccccc8)cc7)C6)OC5)CCN43)C2=O)C(=O)N1 (stereo partly drawn) [Compound B348, (3S)-3-((5aR)-7-((2-(4-((1R,2S)-6-hydroxy-2-phenyl-1,2,3,4-tetrahydronaphthalen-1-yl)phenyl)-5-oxa-2-azaspiro[3.5]nonan-7-yl)methyl)-1-oxo-1,3,5,5a,6,7,8,9-octahydro-2H-pyrazino[1′,2′:4,5][1,4]oxazino[2,3-e]isoindol-2-yl)piperidine-2,6-dione]",< 10 nM
3,"O=C1CC[C@H](N2Cc3cc4c(cc3C2=O)OC[C@@H]2CN(CC3CCC5(CN(c6ccc([C@@H]7c8ccc(O)cc8CC[C@@H]7c7ccccc7)cc6)C5)OC3)CCN42)C(=O)N1 (stereo partly drawn) [Compound B349, (3S)-3-((4aS)-3-((2-(4-((1R,2S)-6-hydroxy-2-phenyl-1,2,3,4-tetrahydronaphthalen-1-yl)phenyl)-5-oxa-2-azaspiro[3.5]nonan-7-yl)methyl)-8-oxo-1,2,3,4,4a,5,8,10-octahydro-9H-pyrazino[1′,2′:4,5][1,4]oxazino[2,3-f]isoindol-9-yl)piperidine-2,6-dione]",10 to 100 nM
4,"O=C1CC[C@H](N2Cc3c(ccc4c3OC[C@H]3CN(C[C@H]5CC[C@H](Nc6ccc([C@@H]7c8ccc(O)cc8CC[C@@H]7c7ccccc7)cc6)CC5)CCN43)C2=O)C(=O)N1 [Compound B353, (S)-3-((R)-7-(((1R,4R)-4-((4-((1R,2S)-6-hydroxy-2-phenyl-1,2,3,4-tetrahydronaphthalen-1-yl)phenyl)amino)cyclohexyl)methyl)-1-oxo-1,3,5,5a,6,7,8,9-octahydro-2H-pyrazino[1′,2′:4,5][1,4]oxazino[2,3-e]isoindol-2-yl)piperidine-2,6-dione]",10 to 100 nM
5,"O=C1CC[C@H](N2Cc3cc4c(cc3C2=O)OC[C@@H]2CN(C[C@H]3CC[C@@H](Nc5ccc([C@@H]6c7ccc(O)cc7CC[C@@H]6c6ccccc6)cc5)CC3)CCN42)C(=O)N1 [Compound B354, (S)-3-((S)-3-(((1R,4S)-4-((4-((1R,2S)-6-hydroxy-2-phenyl-1,2,3,4-tetrahydronaphthalen-1-yl)phenyl)amino)cyclohexyl)methyl)-8-oxo-1,2,3,4,4a,5,8,10-octahydro-9H-pyrazino[1′,2′:4,5][1,4]oxazino[2,3-f]isoindol-9-yl)piperidine-2,6-dione]",10 to 100 nM
6,"O=C1CCC(Nc2ccc(C3CCN(CC4CCN(c5ccc([C@@H]6c7ccc(O)cc7CC[C@@H]6c6ccccc6)cc5)CC4)CC3)cc2F)C(=O)N1 (stereo partly drawn) [Compound B378, 3-((2-fluoro-4-(1-((1-(4-((1R,2S)-6-hydroxy-2-phenyl-1,2,3,4-tetrahydronaphthalen-1-yl)phenyl)piperidin-4-yl)methyl)piperidin-4-yl)phenyl)amino)piperidine-2,6-dione]",> 100 nM
7,"O=C1CCC(Nc2ccc(C3CCN(CC4CC5(CCN(c6ccc([C@@H]7c8ccc(O)cc8CC[C@@H]7c7ccccc7)cc6)CC5)C4)CC3)cc2F)C(=O)N1 (stereo partly drawn) [Compound B379, 3-((2-fluoro-4-(1-((7-(4-((1R,2S)-6-hydroxy-2-phenyl-1,2,3,4-tetrahydronaphthalen-1-yl)phenyl)-7-azaspiro[3.5]nonan-2-yl)methyl)piperidin-4-yl)phenyl)amino)piperidine-2,6-dione]",> 100 nM
